Laboratory results from patent EP0108147B1, “Use of a protoberberine alkaloid and composition containing same” (MAROKO, Peter R., priority 1982, dated 1983).

Experiments:
dogs [1] = experiment: Protocol RK, single dose: dose response on systemic arterial pressure and heart rate; format: in vivo; settings: for average fall in mean arterial pressure: 90 minutes after injection
Protocol: In 4 groups of dogs instrumented as in the last series of experiments (Protocol RK) the effects of increasing dose response on systemic arterial pressure was examined. The only difference from that protocol was that only one dose of berberine (as opposed to two) was administered.
The effects on the measured parameters is dose responsive. In four groups of dogs, the changes in blood pressure were analyzed. The dosage administered was7.5,15,30 and 70 mg/Kg. It was observed that generally blood pressure drop was most marked in the first 5 minutes. After 90 minutes following the injection (when the experiment wad discontinued), the average fall in mean arterial pressure in the group which received 15 mg/Kg was 19 mmHg; in the group that received 30 mg/Kg it was 37 mmHg and in the group that received 70 mg/Kg it was 63 mmHg.

trained conscious dogs = experiment: Protocol F: multiple gated radionuclide ventriculography (MUGR), ejection fraction in conscious dogs without failing heart; format: in vivo
Protocol: To determine further the effects of berberine on patients, experiments were carried out on conscious dogs (Protocol F) and the measurement of left ventricular performance was assessed atraumatically using the multiple gated radionuclide ventriculography (MUGR) similarly to what is done in patients. The multiple gated radionuclide ventriculography is used in patients to assess their cardiac (i.e. left ventricular) performance by analyzing in an. atraumatic manner, the ejection fraction (EF) of the left ventricle. This technique substituted the analysis of ejection fraction by contrast angiography since the latter can be done only in the catheterization laboratory with the patient submitted to the introduction of catheters into his arteries and left ventricular cavity as well as an injection of a radio-opaque dye. MUGR consists in using red blood cells labelled with stannous radioactive technetium. These red blod cells can be labelled either in vivo or in vitro prior to injection. The blood that is now emitting gamma radiation can be detected by an external gamma camera. This device can sum many cycles of the heart beat obtaining an average cycle. Then this cycle is divided in time intervals so that, as an example, the end systolic and the end diastolic frames can be identified. Ejection fraction is the end distolic minus the end systolic volumes divided by the end diastolic volume. It indicates therefore the pumping effectiveness of the left ventricle since it measures the fraction (or the percent if multiplied by 100) of the volume of blood that is expelled from the left ventricular cavity. Experiments were carried out in trained conscious dogs. 14.8.108 Bg (40 mCi) of […] used to label red blood cells that were then injected intravenously. […] The images were acquired using fixed density of the left ventricle. They were measured in quadruplicate and averaged. The external gamma camera used was Ohio Nuclear (model VIP 560).

dogs [2] = experiment: Supraventricular arrhythmias by topical application of aconitine to the atria; format: in vivo; settings: intraveneous bolus 1-5 mg/Kg; aconitine (0.04%) solution
dogs [3] = experiment: Lethal dose, repetitive intravenous boluses; settings: repetitive intravenous boluses within 4 hours
[4] = tested on: patients with heart failure; experiment: Intravenous berberine in patients with heart failure, catheterization laboratory; format: in vivo
Protocol: Berberine HCI was used in patients with heart failure. […] The observations were done in a catheterization laboratory. […] Heart rate decreased in two patients and increased in one. On the average it decreased from 82 to 76 beats/min after 0.02 mg/kg/min and to 79 after 0.2 mg/kg/min. […] It is very impressive that in one patient it fell from 21 to 11 and then to 9 mmHg. Aortic systolic pressure fell from 115 mmHg to 104 and then to 108 mmHg. Aortic diastolic pressure fell from 78 to 68 and then to 67 mmHg. Aortic mean pressure fell from 93 to 80 to 84 mmHg. This is a mild fall in mean aortic pressure. […] These are very marked increases in cardiac output and cardiac index. […] These increases are again very remarkable. […] Thus, the 5 last […] indicated the profound aemelioration in ventricular performance. […] Contractility was evaluated by the indices LV-V max (left ventricular maximal shortening velocity of the contractile element) and LV-VPM (left ventricular peak measured shortening velocoty of the contracile elements).

Solubility = format: physicochemical
Protocol: The solubility of berberine and other similar compounds of the invention may be altered by changing the pH of the solution having each compound its optimum of pH as far as solubility.
The protoberine alkaloids are administered in the manner most appropriate under the circumstances. Administration may be oral, sublingual, subcutaneous, transdermal or intramuscular injection. The compounds may be administered by intravenous route, parenterally.

canine = experiment: Effect of berberine after intravenous propanolol, 12 canine experiments; format: in vivo; settings: intravenous propanolol (1 mg/kg)
Description: The mechanism of berberine is dissimilar to that of beta-adrenergic agonists, which while increasing contractility, increase heart rate also. […] Berberine differs also from digitalis because it reduces peripheral resistance in the non-failing heart.

[5] = tested on: dogs with acute left ventricular failure; experiment: MUGR ejection fraction in dogs with acute left ventricular failure after coronary embolization; format: in vivo; settings: another dog, 0.2 mg/Kg/min
[6] = second dog (Figure VI), after 15 minutes

COc1ccc2cc3[n+](cc2c1OC)CCc1cc2c(cc1-3)OCO2 [berberine]
decrease of heart rate (dogs [1]; 7.5 mg/Kg): 20 beats/min | decrease of heart rate (dogs [1]; 15 mg/Kg): 16 beats/min | average fall in mean arterial pressure (dogs [1]; 15 mg/Kg): 19 mmHg | average fall in mean arterial pressure (dogs [1]; 30 mg/Kg): 37 mmHg | decrease of heart rate (dogs [1]; 35 mg/Kg): 40 beats/min | decrease of heart rate (dogs [1]; 70 mg/Kg): 103 beats/min | average fall in mean arterial pressure (dogs [1]; 70 mg/Kg): 63 mmHg | primary arrhythmias (dogs [1]; 7.5 to 70 mg/Kg): No primary arrhythmias were obtained | ejection fraction (EF), average (trained conscious dogs; one dog, after first infusion): 44 ± 2% | ejection fraction (EF), average (trained conscious dogs; one dog, after second infusion): 40 ± 2% | increase of EF versus the pre-berberine period (trained conscious dogs; one dog, first infusion): 33% | ejection fraction (EF) (trained conscious dogs; one dog, first infusion 0.7 mg/Kg/min 5 minutes, 1st reading (5 min), pre-berberine 33 ± 2): 46% | ejection fraction (EF) (trained conscious dogs; one dog, first infusion, 2nd reading (15 min)): 47% | ejection fraction (EF) (trained conscious dogs; one dog, first infusion, 3rd reading (30 min)): 44% | ejection fraction (EF) (trained conscious dogs; one dog, first infusion, 4th reading (45 min)): 38% | ejection fraction (EF) (trained conscious dogs; one dog, second infusion, 1st reading): 46% | ejection fraction (EF) (trained conscious dogs; one dog, second infusion, 2nd reading): 37% | ejection fraction (EF) (trained conscious dogs; one dog, second infusion, 3rd reading): 40% | ejection fraction (EF) (trained conscious dogs; one dog, second infusion, 4th reading): 38% | ejection fraction (trained conscious dogs; second dog (Figure VI), 0.7 mg/Kg/min for 15 minutes, 1st reading, from 50): 54% | ejection fraction (trained conscious dogs; second dog (Figure VI), 2nd reading): 65% | ejection fraction (trained conscious dogs; [6]): 70% | increase of ejection fraction (trained conscious dogs; [6]): 40% | atrial ectopic beats, atrial tachycardia or atrial fibrillation (dogs [2]): effective in abolishing these arrhythmias | average dose resulting in death due to arterial systemic hypotension (dogs [3]): 120 mg/kg | side effects ([4]; 0.002 mg/kg/min 30 minutes then 0.02 mg/kg/min 30 minutes, 3 patients): without untoward side effects | side effects ([4]; 0.2 mg/kg/min, one patient): without untoward side effects | side effects ([4]; 3 patients with cardiomyopathy, 0.02 then 0.2 mg/kg/min, 15 minutes each): None of the patients had side effects | cardiac index ([4]; after 0.02 mg/kg/min, from 2.9): 3.7 fiters/min/m^2 | cardiac output ([4]; after 0.02 mg/kg/min, from 5.1): 6.6 L/min | Left ventricular end diastolic pressure ([4]; after 0.02 mg/kg/min, from 22): 16 mmHg | ejection fraction ([4]; after 0.02 mg/kg/min, from 32): 36% | stroke index ([4]; after 0.02 mg/kg/min, from 36): 50 ml/m^2 | Stroke volume ([4]; after 0.02 mg/kg/min, from 62): 89 mL | Aortic diastolic pressure ([4]; after 0.02 mg/kg/min, from 78): 68 mmHg | Heart rate, average ([4]; after 0.02 mg/kg/min, from 82): 76 beats/min | Aortic mean pressure ([4]; after 0.02 mg/kg/min, from 93): 80 mmHg | Aortic systolic pressure ([4]; after 0.02 mg/kg/min, from 115): 104 mmHg | Left ventricular systolic pressure ([4]; after 0.02 mg/kg/min, from 116): 106 mmHg | Calculated systemic peripheral resistance ([4]; after 0.02 mg/kg/min, from 1339): 883 10^-5N·S·cm^-5 | Aortic diastolic pressure ([4]; after 0.2 mg/kg/min): 67 mmHg | Aortic mean pressure ([4]; after 0.2 mg/kg/min): 84 mmHg | Aortic systolic pressure ([4]; after 0.2 mg/kg/min): 108 mmHg | Calculated systemic peripheral resistance ([4]; after 0.2 mg/kg/min): 794 10^-5N·S·cm^-5 | Heart rate, average ([4]; after 0.2 mg/kg/min): 79 beats/min | Left ventricular end diastolic pressure ([4]; after 0.2 mg/kg/min): 15 mmHg | Left ventricular systolic pressure ([4]; after 0.2 mg/kg/min): 110 mmHg | Stroke volume ([4]; after 0.2 mg/kg/min): 102 mL | cardiac index ([4]; after 0.2 mg/kg/min): 4.2 fiters/min/m^2 | cardiac output ([4]; after 0.2 mg/kg/min): 7.4 L/min | ejection fraction ([4]; after 0.2 mg/kg/min): 40% | stroke index ([4]; after 0.2 mg/kg/min): 58 ml/m^2 | LV-VPM (left ventricular peak measured shortening velocoty of the contracile elements) ([4]; after berberine, from 0.7): 0.9 | LV-V max (left ventricular maximal shortening velocity of the contractile element) ([4]; after berberine, from 0.9): 1.1 | Left ventricular end diastolic pressure ([4]; one patient, after 0.02 mg/kg/min, from 21): 11 mmHg | Left ventricular end diastolic pressure ([4]; one patient, after 0.2 mg/kg/min): 9 mmHg | solubility as a function of pH (Solubility): increases when pH is lowered towards acidity | solubility in sugar solutions (Solubility): soluble (among others) in sugar solutions | effect on contractility, arterial pressure or heart rate after beta blockade (canine): did not change the effect of berberine | EF ([5]; at 20): 55% | EF ([5]; at 30): 55%
